How the values were obtained:
14-3-3σ/ERα [1] = molecular target: T1, 14-3-3σ/ERα (Homo sapiens, UniProt P03372+P31947); test: Fluorescence anisotropy protein titration, FAM-labeled ERα peptide; format: binding; settings: 10 nM FAM-ERα peptide, versus DMSO reference
T1 construct: The 14-3-3 σ isoform (full-length for mass spectrometry and fluorescence anisotropy assays, ΔC for crystallography); made in house; host or cells: E. coli Rosetta 2(DE3)pLysS, pPROEX HTb vector
Protocol: To evaluate compound-mediated stabilization of the 14-3-3σ/ERα complex directly, FA protein titrations were performed at a saturating concentration of compound. FA protein titrations allowed the quantification of the cooperative effect by comparing the apparent dissociation constants (appKD) of the binary and ternary complexes. 14-3-3σ was titrated into 10 nM FAM-labeled ERα peptide in the presence of DMSO or 100 μM of the compounds (Table S4). […]
diluted in buffer (10 mM HEPES, pH 7.5, 150 mM NaCl, 0.1% Tween20, 1 mg/mL Bovine Serum Albumin (BSA; Sigma-Aldrich). Final DMSO in the assay was always 1%. […]
Protein titrations were made by titrating 14-3-3σ in a 2-fold dilution series (starting at 300 µM) to a mix of fluorescein-labeled peptide (10 nM) and DMSO or compound (100 µM). Fluorescence anisotropy measurements were performed after overnight incubation at room temperature. […]
(§1) Wells containing only FAM-peptide were used to set as G-factor at 35 mP. Data reported are at endpoint. EC50 and apparent Kd values were obtained from fitting the data with a four-parameter logistic model (4PL) in GraphPad Prism 7 for Windows. Data was obtained and averaged based on either three (compound titrations) or two (protein titrations) independent experiments.

14-3-3σ/C-RAF [2] = molecular target: T2, 14-3-3σ/C-RAF (Homo sapiens, UniProt P31947); test: Fluorescence anisotropy compound titration, FAM-labeled C-RAF peptide; format: binding; settings: 10 nM C-RAF-FAM labeled peptide, 5 µM 14-3-3σ, overnight incubation; read-out: EC50 value C-RAF (FA compound titration)
T2 construct: The 14-3-3 σ isoform (full-length for mass spectrometry and fluorescence anisotropy assays, ΔC for crystallography); made in house; host or cells: E. coli Rosetta 2(DE3)pLysS, pPROEX HTb vector
T2 sequence (P31947 1-248): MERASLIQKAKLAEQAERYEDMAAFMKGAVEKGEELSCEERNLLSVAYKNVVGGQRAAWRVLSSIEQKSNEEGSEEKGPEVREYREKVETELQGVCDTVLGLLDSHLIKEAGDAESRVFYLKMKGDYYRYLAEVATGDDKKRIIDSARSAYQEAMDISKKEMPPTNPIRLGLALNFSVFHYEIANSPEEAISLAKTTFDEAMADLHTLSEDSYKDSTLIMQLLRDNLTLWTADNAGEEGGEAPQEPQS
Excerpt: Two orthogonal assays were developed for screening. For the primary assay, mass spectrometry (MS) was used to monitor the formation of the covalent bond between the compound and the native cysteine (Cys38 on 14-3-3σ) (Figure 1D). The assay was first performed in the absence of peptide to determine binding to 14-3-3σ only (apo screening, D1) and then in the presence of both 14-3-3σ and the peptide as an indication of how much the peptide stabilized compound binding (D2). […] As a secondary assay, fluorescence anisotropy (FA) was used. In this case, compounds were titrated to mixtures of 14-3-3σ and FAM-labeled peptides. […] Thus, the two assays are highly complementary; the MS assay reports on compound binding and the FA assay reports on peptide binding. […]
diluted in buffer (10 mM HEPES, pH 7.5, 150 mM NaCl, 0.1% Tween20, 1 mg/mL Bovine Serum Albumin (BSA; Sigma-Aldrich). Final DMSO in the assay was always 1%. Dilution series of 14-3-3 proteins or compounds were made in […]
Compound titrations were made by titrating the compound in a 2-fold dilution series (starting at 500 or 1000 µM) to a mix of fluorescein-labeled peptide (10 nM) and 14-3-3σ (concentration at approximately the EC20 to EC30 value of the protein-peptide complex; 1 µM for ERα and 5 µM for C-RAF). Using the ~EC25 value makes the assay sensitive for measuring an increase in PPI formation. Fluorescence anisotropy measurements were performed directly and after overnight incubation at room temperature. […]
as §1

14-3-3σ/C-RAF [3] = molecular target: T2, 14-3-3σ/C-RAF; test: Mass spectrometry dose response, compound binding to 14-3-3σ in the presence of C-RAF phosphopeptide; settings: 100 nM compound, 100 nM 14-3-3σ, C-RAF peptide 18 µM
Method in brief: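 Covalent binding of compounds to the native Cys38 of 14-3-3σ was monitored by LC-MS on a Waters Acquity UPLC/Xevo G2-XS Q-Tof, with samples desalted on a BEH-C4 column. Full-length wild type 14-3-3σ (100 nM) with C-RAF peptide in TRIS buffer (10 mM, pH 8.0) was incubated with compound dose series at room temperature.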

14-3-3σ/ERα [4] = molecular target: T1, 14-3-3σ/ERα; test: Mass spectrometry dose response, compound binding to 14-3-3σ in the presence of ERα phosphopeptide; settings: 100 nM compound, 100 nM 14-3-3σ, ERα-peptide 2 µM
Method in brief: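 Covalent labeling of Cys38 on 14-3-3σ was tracked by LC-MS on a Waters Acquity UPLC/Xevo G2-XS Q-Tof, with samples desalted on a Protein BEH-C4 column. Full-length wild type 14-3-3σ (100 nM) plus ERα phosphopeptide was mixed with compound in 10 mM TRIS, pH 8.0, at 50 μl per well. Percent bound was measured at several time points.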

14-3-3σ/ERα [5] = molecular target: T1, 14-3-3σ/ERα; test: Fluorescence anisotropy compound titration, FAM-labeled ERα peptide; format: binding; settings: 10 nM ERα-FAM labeled peptide, 1 µM 14-3-3σ, overnight incubation (24 h); read-out: EC50 value ERα (FA compound titration)
Method in brief: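 Fluorescence anisotropy compound titration measuring stabilization of the 14-3-3σ/ERα interaction: compounds were titrated in a 2-fold dilution series (starting at 500 or 1000 µM) into a mix of 10 nM fluorescein-labeled ERα peptide and 1 µM 14-3-3σ (about EC25 of the complex) in HEPES buffer with 1% DMSO, read after overnight incubation at room temperature; EC50 from 4PL fitting.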

14-3-3σ = molecular target: T3, 14-3-3σ (Homo sapiens, UniProt P31947); test: Mass spectrometry dose response, compound binding to 14-3-3σ in the absence of peptide (apo); settings: 100 nM compound, 100 nM 14-3-3σ
T3 construct: The 14-3-3 σ isoform (full-length for mass spectrometry and fluorescence anisotropy assays, ΔC for crystallography); made in house; host or cells: E. coli Rosetta 2(DE3)pLysS, pPROEX HTb vector
T3 sequence (P31947 1-248): T2 sequence (P31947 1-248)
Method in brief: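 Covalent binding of compounds to Cys38 of full-length wild type human 14-3-3σ (100 nM) was measured by LC-MS without peptide present. Compounds from 50 mM DMSO stocks were serially diluted 3-fold and 1000 nl transferred to plates in TRIS buffer (10 mM, pH 8.0), 50 μl per well. Samples were desalted on a BEH-C4 column and analysed on a Xevo G2-XS Q-Tof at several time points.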

SMILES | X Fold stabilization (100 µM compound) of 14-3-3σ/ERα (14-3-3σ/ERα [1]) | EC50 (14-3-3σ/C-RAF [2]) | Percentage (%) bound of compound to 14-3-3σ, CRAF 1h (14-3-3σ/C-RAF [3]) | Percentage (%) bound of compound to 14-3-3σ, CRAF 8h (14-3-3σ/C-RAF [3]) | Percentage (%) bound of compound to 14-3-3σ, CRAF 24h (14-3-3σ/C-RAF [3]; 24h) | Percentage (%) bound of compound to 14-3-3σ, CRAF 24h (14-3-3σ/C-RAF [3]; head prints 24h) | Percentage (%) bound of compound to 14-3-3σ, ERα 1h (14-3-3σ/ERα [4]) | Percentage (%) bound of compound to 14-3-3σ, ERα 8h (14-3-3σ/ERα [4]) | Percentage (%) bound of compound to 14-3-3σ, ERα 16h (14-3-3σ/ERα [4]) | Percentage (%) bound of compound to 14-3-3σ, ERα 24h (14-3-3σ/ERα [4]) | EC50 (14-3-3σ/ERα [5]) | Percentage (%) bound of compound to 14-3-3σ, APO 1h (14-3-3σ) | Percentage (%) bound of compound to 14-3-3σ, APO 8h (14-3-3σ) | Percentage (%) bound of compound to 14-3-3σ, APO 16h (14-3-3σ) | Percentage (%) bound of compound to 14-3-3σ, APO 24h (14-3-3σ)
C=CC(C)(C)OCC1OC(OC2C3=C(C(C)COC(C)=O)CC(O)C3(C)C=C3C(COC)CCC3C(C)C2O)C(O)C(OC(C)=O)C1O (stereo not drawn) [FC-A, Fusicoccin-A, reference compound] | 166 fold | – | – | – | – | – | – | – | – | – | – | – | – | – | –
CC(C)(Nc1ccc(Cl)cc1)C(=O)N1CCC(CNC(=O)CCl)CC1 [compound 84] | – | > 150 µM | 0.8% | 1.0% | 3.3% | 2.9% | 0.9% | 2.8% | 7.5% | 19.0% | 55 ± 2 µM | 0% | 0% | 1.0% | 5.8%
O=C(CCl)NCC1CCN(C(=O)C2(Oc3ccc(Cl)cc3)CCCCC2)CC1 [compound 122] | – | > 150 µM | 1.5% | 4.8% | 17.5% | 8.9% | 1.6% | 7.1% | 11.5% | 32.3% | 55 ± 14 µM | 0% | 0% | 0.8% | 1.3%
O=C(CCl)NCC1CCN(C(=O)C2(Oc3ccc(Cl)cc3)CCOCC2)CC1 [compound 126] | – | > 150 µM | 0.0% | 1.0% | 4.7% | 3.6% | 1.7% | 6.2% | 9.1% | 15.1% | 9 ± 2 µM | 0% | 0% | 0% | 1.0%
O=C(CCl)N1CCC2(CC1)CN(C(=O)C1(Nc3ccc(Cl)cc3)CCOCC1)C2 [compound 161] | – | > 150 µM | 0% | 0.6% | 2.1% | 1.0% | 4.7% | 7.8% | 14.9% | 39.8% | 22 ± 1 µM | 0% | 0% | 0.5% | 1.0%
O=C(CCl)N1CCC2(CC1)CC(CNC(=O)C1(Nc3ccc(Cl)cc3)CCOCC1)C2 [compound 175] | – | > 150 µM | 2.4% | 6.0% | 17.4% | 9.6% | 21.7% | 39.4% | 64.1% | 87.3% | 15 ± 2 µM | 1.9% | 5.4% | 10.6% | 16.7%
O=C(CCl)NCC1CCN(C(=O)C2(Oc3ccc(Cl)cc3)CCC(F)(F)CC2)CC1 [compound 124] | – | > 150 µM | 2.0% | 2.9% | 15.3% | 9.1% | 7.4% | 15.3% | 33.4% | 66.9% | 18 ± 0.4 µM | 0% | 1.0% | 1.4% | 1.6%
O=C(CCl)NCC1CCN(C(=O)C2(Nc3ccc(Cl)cc3)CC2)CC1 [compound 97] | – | 101 ± 15 µM | 1.0% | 1.7% | 5.5% | 5.1% | 1.0% | 2.5% | 5.8% | 21.3% | 15 ± 1 µM | 0.3% | 0.4% | 0.8% | 5.9%

From paper PMC10515640, “Structure-Based Optimization of Covalent, Small-Molecule Stabilizers of the 14-3-3σ/ERα Protein–Protein Interaction from Nonselective Fragments” (Journal of the American Chemical Society, 2023)
